Patent US8598119B2, “Methods and compositions for sleep disorders and other disorders” (priority 2008, dated 2013)
Entries after “also recorded” stand apart in the source; their conditions may differ.

Legend:
[1] = biological target: SERT (rat forebrain synaptosomal membrane) (Rattus norvegicus (Rat), UniProt P31652); experiment: Transporter SERT radioligand binding assay in rat forebrain, [3H]-N-Methyl-Citalopram; conditions: Table 2
[2] = biological target: H1 receptors (Homo sapiens (Human), UniProt P35367); experiment: biochemical
[3] = biological target: human 5-HT2C receptors (Homo sapiens (Human), UniProt P28335, I156V/I160V); experiment: biochemical
[4] = test system: unilateral 6-OHDA-lesioned mice; experiment: L-DOPA induced dyskinesia (AIMS) in unilateral 6-OHDA-lesioned mice; type: in vivo, mouse
Description: Day 1-Day 9: Treatment with L-DOPA/benserazide
Day 10: Treatment with L-DOPA/benserazide+Evaluation of AIMs (dyskinesia)
Experiment 1 (Chronic): Development of Dyskinesia
Day 1-Day 10: Treatment with L-DOPA/benserazide plus ITI-007 ITI-007PD.
Day 11: Treatment with L-DOPA/benserazide+Evaluation of AIMs (dyskinesia)
Experiment 2 (Acute): Expression of dyskinesia
Day 1-Day 10: Treatment with L-DOPA/benserazide
Day 11: Treatment with L-DOPA/benserazide plus ITI-007+Evaluation of AIMs (dyskinesia)
The compound effectively reduces (by ˜50%) the development of dyskinetic behaviors in PD mice (i.e., Chronic treatment group). It has a less robust but still significant effect (by ˜25% reduction) on established dyskinetic behaviors (i.e., Acute treatment group). […] In addition to reducing L-DOPA-Induced Dyskinesias, as described above, the Compounds of Formula I will also reduce PD psychosis and depression, improve poor night time sleep and reduce excessive daytime sleepiness.

[5] = test system: socially-defeated mice; experiment: Social defeat (resident-intruder) mouse model for depression; type: in vivo
[6] = biological target: Striatal D2 receptor (Homo sapiens (Human), UniProt P14416); experiment: Striatal D2 receptor occupancy by positron emission tomography in healthy volunteers; type: in vivo; conditions: PET
[7] = test system: patients with sleep maintenance insomnia (SMI); experiment: Clinical trial, overnight PSG in patients with sleep maintenance insomnia; type: in vivo, human; conditions: for SWS, Mean Change from Baseline / Total Sleep Time, Mean Change from Baseline / Total Time Awake, Mean Change from Baseline / WASO, Mean Change from Baseline: n = 18, PSG
[8] = test system: socially-defeated mice; conditions: treated daily for 30 days; cited from earlier work
[9] = 1, 5, 10 mg single doses, in words

Chain of Striatal D2 receptor (P14416 whole entry): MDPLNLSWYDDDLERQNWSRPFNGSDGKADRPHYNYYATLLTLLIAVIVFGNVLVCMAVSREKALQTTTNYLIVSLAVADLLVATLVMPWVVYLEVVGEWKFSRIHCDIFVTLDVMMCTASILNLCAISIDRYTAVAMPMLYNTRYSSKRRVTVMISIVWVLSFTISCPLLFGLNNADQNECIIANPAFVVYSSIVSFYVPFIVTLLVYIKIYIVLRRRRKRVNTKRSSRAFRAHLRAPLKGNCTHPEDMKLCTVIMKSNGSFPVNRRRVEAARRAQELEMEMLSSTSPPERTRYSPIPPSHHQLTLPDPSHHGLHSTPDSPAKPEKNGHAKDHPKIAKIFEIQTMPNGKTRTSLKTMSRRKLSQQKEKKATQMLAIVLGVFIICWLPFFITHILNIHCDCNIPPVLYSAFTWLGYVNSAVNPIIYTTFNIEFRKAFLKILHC
Chain of human 5-HT2C receptors (P28335 33-458 I156V/I160V): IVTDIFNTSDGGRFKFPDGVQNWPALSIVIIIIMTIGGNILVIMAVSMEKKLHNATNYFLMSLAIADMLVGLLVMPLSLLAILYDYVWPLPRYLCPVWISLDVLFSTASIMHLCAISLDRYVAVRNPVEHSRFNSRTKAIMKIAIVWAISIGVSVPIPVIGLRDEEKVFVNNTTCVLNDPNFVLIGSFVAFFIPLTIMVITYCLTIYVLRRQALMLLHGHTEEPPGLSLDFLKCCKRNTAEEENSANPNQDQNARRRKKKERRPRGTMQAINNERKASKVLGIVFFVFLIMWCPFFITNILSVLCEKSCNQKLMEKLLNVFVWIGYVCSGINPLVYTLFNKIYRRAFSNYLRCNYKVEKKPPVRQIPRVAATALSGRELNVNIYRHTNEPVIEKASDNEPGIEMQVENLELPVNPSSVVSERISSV
Chain of SERT (rat forebrain synaptosomal membrane) (P31652 whole entry): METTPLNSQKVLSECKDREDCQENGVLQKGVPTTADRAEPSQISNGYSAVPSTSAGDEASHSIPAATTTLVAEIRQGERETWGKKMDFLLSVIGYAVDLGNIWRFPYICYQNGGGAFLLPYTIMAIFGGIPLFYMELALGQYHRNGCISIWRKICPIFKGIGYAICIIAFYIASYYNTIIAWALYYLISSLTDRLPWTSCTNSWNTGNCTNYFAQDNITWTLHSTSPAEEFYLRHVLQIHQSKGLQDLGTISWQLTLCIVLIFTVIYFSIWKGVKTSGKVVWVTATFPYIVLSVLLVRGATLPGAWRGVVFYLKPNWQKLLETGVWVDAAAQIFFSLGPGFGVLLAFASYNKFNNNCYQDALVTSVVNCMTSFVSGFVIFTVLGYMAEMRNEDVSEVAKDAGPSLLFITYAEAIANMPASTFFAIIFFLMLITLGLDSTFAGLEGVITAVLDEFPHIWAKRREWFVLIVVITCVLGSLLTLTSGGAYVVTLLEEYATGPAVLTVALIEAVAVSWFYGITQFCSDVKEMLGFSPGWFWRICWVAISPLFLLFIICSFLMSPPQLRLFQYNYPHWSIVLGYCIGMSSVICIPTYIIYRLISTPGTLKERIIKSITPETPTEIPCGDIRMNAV
Chain of H1 receptors (P35367 whole entry): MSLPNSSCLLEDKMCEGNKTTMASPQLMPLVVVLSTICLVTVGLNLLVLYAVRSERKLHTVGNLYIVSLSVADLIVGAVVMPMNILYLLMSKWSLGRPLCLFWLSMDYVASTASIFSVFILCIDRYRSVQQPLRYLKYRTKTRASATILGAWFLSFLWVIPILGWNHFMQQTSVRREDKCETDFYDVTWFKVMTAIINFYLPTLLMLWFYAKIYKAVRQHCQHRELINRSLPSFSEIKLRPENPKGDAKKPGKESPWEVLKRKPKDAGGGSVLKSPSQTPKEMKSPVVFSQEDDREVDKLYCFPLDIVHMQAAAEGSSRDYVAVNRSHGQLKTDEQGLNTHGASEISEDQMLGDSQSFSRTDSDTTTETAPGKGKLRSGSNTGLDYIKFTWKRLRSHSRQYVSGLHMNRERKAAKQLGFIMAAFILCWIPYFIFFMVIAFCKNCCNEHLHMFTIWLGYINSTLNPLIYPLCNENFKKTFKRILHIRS

In the case of `CN1CCN2c3c(cccc31)[C@@H]1CN(CCCC(=O)c3ccc(F)cc3)CC[C@@H]12` [Compound A, 1-(4-Fluoro-phenyl)-4-((6bR,10aS)-3-methyl-2,3,6b,9,10,10a-hexahydro-1H,7H-pyrido[3′,4′,4,5]pyrrolo[1,2,3-de]quinoxalin-8-yl)-butan-1-one], the Ki [1] is reported as 46 nM, the Ki [2] is reported as > 100 nM and the Ki [3] is reported as 173 nM. For the same compound, the “reduction of development of dyskinetic behaviors (Chronic treatment group)” value ([4]; 0.3 mg/kg IP co-administered with levodopa 10 mg/kg IP, chronic) was ~50%, the “reduction of established dyskinetic behaviors (Acute treatment group)” value ([4]; 0.3 mg/kg IP with levodopa 10 mg/kg IP, acute) was ~25% and the “time in the Interaction Zone, socially-defeated mice” value ([5]; 1 mg/kg IP once daily for 29 d, tested day 30, versus socially-defeated mice receiving vehicle) was “almost twice as much time in the Interaction Zone”. For the same compound, the “general health and weight gain, normal mice” value ([5]; normal mice treated once daily for 30 d, 1 mg/kg IP) was “healthy and normal-appearing and gained weight normally”, the “time in the Interaction Zone, normal mice” value ([5]; normal mice, 1 mg/kg IP once daily, versus vehicle) was “comparable time in the Interaction Zone as mice receiving the vehicle injection” and the “% Striatal D2 Occupancy” value ([6]; 20 mg) was ~20%. For the same compound, the “% Striatal D2 Occupancy” value ([6]; 30 mg) was ~32%, the “SWS, Mean Change from Baseline” value ([7]; 1 mg single dose) was 0.47 min and the “Total Sleep Time, Mean Change from Baseline” value (from here on “Total Sleep Time, Mean Change”) ([7]; 1 mg single dose) was 4.17 min. For the same compound, the “Total Time Awake, Mean Change from Baseline” value (from here on “Total Time Awake, Mean Change”) ([7]; 1 mg single dose) was -4.08 min, the “WASO, Mean Change from Baseline” value ([7]; 1 mg single dose) was -12.69 min and the “SWS, Mean Change from Baseline” value ([7]; 5 mg single dose) was 5.53 min. The “Total Sleep Time, Mean Change” value ([7]; 5 mg single dose) was 0.56 min, the “Total Time Awake, Mean Change” value ([7]; 5 mg single dose) was -1.42 min and the “WASO, Mean Change from Baseline” value ([7]; 5 mg single dose) was -14.31 min. For the same compound, the “SWS, Mean Change from Baseline” value ([7]; 10 mg single dose) was 8.94 min, the “Total Sleep Time, Mean Change” value ([7]; 10 mg single dose) was 27.61 min and the “Total Time Awake, Mean Change” value ([7]; 10 mg single dose) was -28.31 min. For the same compound, the “WASO, Mean Change from Baseline” value ([7]; 10 mg single dose) was -33.22 min, the “effect on slow wave sleep (SWS)” value [7, 9] was “increases SWS; also recorded: dose-dependently increase slow wave sleep” and the “effect on wake time after sleep onset (WASO)” value [7, 9] was “dose-dependently decreases WASO; also recorded: dose-dependently decreases wake after sleep onset”. For the same compound, the “duration of REM” value ([7]; PSG) was “no change in duration of REM; also recorded: did not suppress REM sleep”, the “latency to REM” value ([7]; PSG) was “no change on latency to REM” and the “latency to fall asleep” value ([7]; PSG) was “does not impair latency to fall asleep”. For the same compound, the “slow wave sleep by part of the night” value ([7]; first and second quarter of the night) was “increases slow wave sleep during the first half of the night”, the “dose-related adverse events or changes in safety parameters” value ([7]; human, in vivo) was “no dose-related adverse events or changes in safety parameters” and the early-morning rebound insomnia ([7]; human, in vivo) was “no early-morning rebound insomnia”. For the same compound, the serious adverse events ([7]; human, in vivo) was “no serious adverse events”, the total sleep time ([7]; in words) was “increase total sleep time” and the “cognitive function the morning after PSG (DSST, WPAT, Leeds Psychomotor Test)” value ([7]; next day) was “does not impair cognitive function; also recorded: do not impair next-day cognitive function”. The sleep architecture ([7]; over the course of the night) was “preserves normal sleep architecture over the course of the night”, the safety and tolerability ([7]; patients with sleep maintenance insomnia) was “safe and well tolerated; also recorded: safe and well-tolerated” and the “stage 2 sleep by part of the night” value ([7]; third and fourth quarter of the night) was “increases stage 2 sleep during the second half of the night”.

For `CN(C)CCCN1c2ccccc2CCc2ccccc21` [IMI, imipramine], the “social interaction behavior of socially defeated mice after chronic anti-depressant” value [8] is listed as “improved social interaction behavior”.

In the case of `CNCCC(Oc1ccc(C(F)(F)F)cc1)c1ccccc1` (centres unmarked) [fluoxetine], the “social interaction behavior of socially defeated mice after chronic anti-depressant” value [8] is given as “improved social interaction behavior”.
